Test results published in ChEMBL document CHEMBL1150529, “Synthesis and pharmacological activity of SC-53228, a leukotriene B4 receptor antagonist with high intrinsic potency and selectivity” (Bioorg Med Chem Lett, 1994).
Active and inactive are the calls of the source. The calls are words filed in the database; no cut-off is given here.

Experiments:
[1] = species on record: Cavia porcellus; assay: Oral effective dose for guinea pig LTB4 induced intradermal chemotaxis; assay type: functional
[2] = target: Leukotriene B4 receptor 1 (Homo sapiens, UniProt Q15722); assay: Inhibitory activity against leukotriene B4 receptor
Leukotriene B4 receptor 1, sequence (Q15722 whole entry): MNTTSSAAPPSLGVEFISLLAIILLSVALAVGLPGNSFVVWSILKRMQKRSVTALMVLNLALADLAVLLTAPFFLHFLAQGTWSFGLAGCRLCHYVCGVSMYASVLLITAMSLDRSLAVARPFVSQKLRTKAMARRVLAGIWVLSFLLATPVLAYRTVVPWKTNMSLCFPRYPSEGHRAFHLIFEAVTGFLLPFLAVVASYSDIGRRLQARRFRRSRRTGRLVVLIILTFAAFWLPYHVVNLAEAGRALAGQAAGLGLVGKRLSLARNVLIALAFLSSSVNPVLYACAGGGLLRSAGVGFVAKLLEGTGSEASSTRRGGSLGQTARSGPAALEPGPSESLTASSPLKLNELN

[3] = system: Mus musculus; assay: Topical effective dose for TPA induced ear inflammation in the mouse; assay type: functional
[4] = species on record: Homo sapiens; assay: Compound was tested for inhibitory activity against leukotriene B4 induced neutrophil chemotaxis; assay type: functional
[5] = species on record: Mus musculus; assay: Oral effective dose for TPA induced ear inflammation in the mouse; assay type: functional
[6] = system: Rattus norvegicus; assay: Tested for increase in fatty acyl Co-A activity in rats dosed for 7 days at a dose of 200 mg/kg/day; NS means no significant activity; assay type: functional, organism-based

| Compound | ED50 [1] | IC50 [2] | ED50 [3] | IC50 [4] | ED50 [5] | Activity [6] |
| --- | --- | --- | --- | --- | --- | --- |
| CCCc1c(OCCCOc2ccc(C(=O)NC)c(OC)c2CC2CC2)ccc2c1O[C@@H](CCC(=O)O)CC2 | 0.2 mg/kg | 8.5 nM | 1200 µg | 10.7 nM |  |  |
| CCCCC/C=C\C[C@@H](O)/C=C/C=C/C=C\[C@@H](O)CCCC(=O)O [LEUKOTRIENE_B4] |  |  |  | 1.79 nM |  |  |
| CCCc1c(OCCCOc2ccc(C(=O)NC)c(OC)c2CC2CC2)ccc2c1OC(CCC(=O)O)CC2 (centres undefined) |  | 10.9 nM |  | 21.9 nM |  |  |
| CCCc1c(OCCCOc2ccc(C(=O)N3CCCC3)c(OC)c2CCC)ccc2c1OC(C(=O)O)CC2 (centres undefined) |  | < 0.1 nM |  | < 0.16 nM |  |  |
| CCCc1c(OCCCOc2ccc(C(=O)NC)c(OC)c2CCC)ccc2c1OC(C(=O)O)CC2 (centres undefined) |  | 0.85 nM |  | 1.3 nM |  |  |
| CCCc1c(OCCCOc2ccc(C(N)=O)c(OC)c2CCC)ccc2c1OC(C(=O)O)CC2 (centres undefined) |  | 2.4 nM |  | 2.7 nM |  |  |
| CCCc1c(OCCCOc2ccc(C(=O)NC(C)C)c(OC)c2CCC)ccc2c1OC(C(=O)O)CC2 (centres undefined) |  | 0.1 nM |  | 0.11 nM |  |  |
| CCCc1c(OCCCOc2ccc(C(=O)NC)c(OC)c2CC2CC2)ccc2c1OC(C(=O)O)CC2 (centres undefined) |  | 5.3 nM |  | 13 nM |  |  |
| CCCc1c(OCCCOc2ccc(C(C)=O)c(OC)c2CCC)ccc2c1OC(C(=O)O)CC2 (centres undefined) [SC-41390] | 1.7 mg/kg |  | 1400 µg | 1 nM | 18 mg/kg |  |
| CCCc1c(OCCCOc2ccc(C(=O)NC)c(OC)c2CC2CC2)ccc2c1O[C@H](CCC(=O)O)CC2 | 0.07 mg/kg | 14.5 nM | 200 µg | 24.4 nM | < 2.5 mg/kg | inactive |
| CCCc1c(OCCCOc2ccc(C(=O)N(C)C)c(OC)c2CCC)ccc2c1OC(C(=O)O)CC2 (centres undefined) |  | 0.15 nM |  | < 0.14 nM |  |  |
